Earlier results as cited in patent publication US20230210865A1, “MIDAZOLAM PREMIX FORMULATIONS AND USES THEREOF” (Baxter International, Inc., priority 2021, published 2023).
Structures can show the parent of a compound that is named as a salt.

Cc1ncc2n1-c1ccc(Cl)cc1C(c1ccccc1F)=NC2 [Midazolam HCl, 8-chloro-6-(2-fluorophenyl)-1-methyl-4H-imidazo[1,5-a][1,4]benzodiazepine hydrochloride]
Onset time of sedative effects (after intramuscular administration in adults): about fifteen
Potency relative to diazepam (sedative agent, administered by injection): about twice
